Calls of active or inactive are those of the source.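 How the source made its calls: active means inhibition of 30% or more against both LYPLA2 panels while inhibition against LYPLA1 stays below 30%; inactive means under 30% on either LYPLA2 panel, or 30%+ on LYPLA1.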
Legend:
Assay in all cases: inhibitor selectivity across mouse and human LYPLA2, LYPLA1 – cell lysate, gel-based ABPP, FP-Rh fluorescence, mouse brain membrane proteome, selectivity assay for LYPLA2 selective inhibitor project, late-stage follow-up (AID 652030)
[1] = molecular target: Acyl-protein thioesterase 2 (Homo sapiens) (UniProt O95372); conditions: rhLYPLA2, at 10 µM, stronger effect = higher value
Chain of Acyl-protein thioesterase 2 (Homo sapiens) (O95372 whole entry, looked up): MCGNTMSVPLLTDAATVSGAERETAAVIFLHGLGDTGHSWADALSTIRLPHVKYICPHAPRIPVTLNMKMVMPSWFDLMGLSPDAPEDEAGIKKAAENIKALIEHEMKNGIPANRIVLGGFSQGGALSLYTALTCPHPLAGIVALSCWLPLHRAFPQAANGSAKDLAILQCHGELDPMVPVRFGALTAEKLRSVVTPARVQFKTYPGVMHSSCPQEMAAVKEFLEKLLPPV

[2] = molecular target: Acyl-protein thioesterase 1 (Mus musculus) (UniProt P97823); conditions: emLYPLA1, at 10 µM, stronger effect = higher value
[3] = molecular target: Acyl-protein thioesterase 2 (Mus musculus) (UniProt Q9WTL7); conditions: emLYPLA2, at 10 µM, stronger effect = higher value

Question: For `COc1ccccc1-c1nnc(C2CCN(S(=O)(=O)c3ccc([N+](=O)[O-])cc3)CC2)o1`, which inhibition [1] is on record?
Answer: 9% (inactive)

Question: And the inhibition [2]?
Answer: 16% (inactive)

Question: What about the inhibition [3] of the same compound?
Answer: 5% (inactive)

Question: `CCN(CC)S(=O)(=O)c1ccc(N2CCOCC2)c(NC(=O)COc2ccc(C#N)cc2)c1` was tested. Which inhibition [1] did it give?
Answer: 3% (inactive)

Question: And the inhibition [2]?
Answer: 12% (inactive)

Question: What about the inhibition [3] of the same compound?
Answer: 0% (inactive)

Question: How did the inhibition [1] turn out when `Cc1ccc(N/C=C(\C#N)c2ccc(OCCCF)cc2)cc1` was run?
Answer: 5% (inactive)

Question: And the inhibition [2]?
Answer: 17% (inactive)

Question: What about the inhibition [3] of the same compound?
Answer: 13% (inactive)

Question: Which results are given for `COc1ccc(N2CCN(C(=O)c3cc4c(s3)-c3ccccc3S(=O)(=O)C4)CC2)cc1`?
Answer: inhibition [1]: 79%; inhibition [2]: 25% (inactive); inhibition [3]: 74%

Question: Which inhibition [1] does the source give for `COc1ccc(OC)c(-c2cc(C(=O)Nc3c(C)nn(Cc4ccccc4C)c3C)no2)c1` here?
Answer: 8% (inactive)

Question: What about the inhibition [2] of the same compound?
Answer: 6% (inactive)

Question: What about the inhibition [3] of the same compound?
Answer: 0% (inactive)

Question: Which inhibition [1] does the source give for `Cc1cccc(N2CCN(C(=O)Cc3ccc(-n4c(=O)[nH]c5ccsc5c4=O)cc3)CC2)c1C` here?
Answer: 4% (inactive)

Question: What about the inhibition [2] of the same compound?
Answer: 14% (inactive)

Question: What about the inhibition [3] of the same compound?
Answer: 0% (inactive)

Question: What does the source list for `O=C(NCC1CCN(c2ccc(S(=O)(=O)N3CCOCC3)cc2)CC1)c1ccc(Cl)cc1`?
Answer: inhibition [1]: 9% (inactive); inhibition [2]: 3% (inactive); inhibition [3]: 9% (inactive)

Question: Which results are given for `Cc1cccc(NC(=O)CN2C(=O)S/C(=C\c3cccn3-c3cccc(C(=O)O)c3)C2=O)c1`?
Answer: inhibition [1]: 66%; inhibition [2]: 17% (inactive); inhibition [3]: 77%

Question: How did the inhibition [1] turn out when `COc1ccc(N2CCN(C(=O)C3CCC(Cn4c(=S)[nH]c5ccccc5c4=O)CC3)CC2)cc1` (centres undefined) was run?
Answer: 47%

Question: What about the inhibition [2] of the same compound?
Answer: 16% (inactive)

Question: And the inhibition [3]?
Answer: 44%

Question: With `Cc1cccc(NC(=O)CN2C(=O)S/C(=C\c3cc(C)n(C)c3C)C2=O)c1` as the compound, how does the inhibition [1] read?
Answer: 51%

Question: What about the inhibition [2] of the same compound?
Answer: 9% (inactive)

Question: And the inhibition [3]?
Answer: 40%

Question: How did the inhibition [1] turn out when `CC(=O)c1ccc(N2CCN(C(=O)C3CCN(S(=O)(=O)c4ccc5c(c4)CC(C)N5C(=O)C4CC4)CC3)CC2)cc1` (centres undefined) was run?
Answer: 10% (inactive)

Question: And the inhibition [2]?
Answer: 18% (inactive)

Question: What about the inhibition [3] of the same compound?
Answer: 19% (inactive)

Question: What does the source list for `COc1ccccc1-n1cc(C(=O)NCC(=O)N2CCN(Cc3ccccc3)CC2)c2ccccc2c1=O`?
Answer: inhibition [1]: 14% (inactive); inhibition [2]: 0% (inactive); inhibition [3]: 15% (inactive)

Question: With `O=C(Cn1cnc2ccccc2c1=O)c1ccc(OC(F)F)cc1` as the compound, how does the inhibition [1] read?
Answer: 7% (inactive)

Question: And the inhibition [2]?
Answer: 5% (inactive)

Question: And the inhibition [3]?
Answer: 8% (inactive)

Question: For `COc1cc(/C=C2\SC(=O)N(CC(=O)Nc3cccc(C)c3)C2=O)ccc1OC(C)C(=O)O` (centres undefined), which inhibition [1] is on record?
Answer: 58%

Question: What about the inhibition [2] of the same compound?
Answer: 28% (inactive)

Question: What about the inhibition [3] of the same compound?
Answer: 37%

Question: What does the source list for `CCCCCCCCCC(=O)Nn1cnc2ccccc2c1=O`?
Answer: inhibition [1]: 4% (inactive); inhibition [2]: 28% (inactive); inhibition [3]: 12% (inactive)

Question: What does the source list for `O=C(O)c1ccc(CN2C(=O)c3ccc(Oc4ccc([N+](=O)[O-])cc4)cc3C2=O)cc1`?
Answer: inhibition [1]: 7% (inactive); inhibition [2]: 6% (inactive); inhibition [3]: 4% (inactive)

Question: `O=C(Nc1ccc(N2CCN(C(=O)c3ccco3)CC2)c(Cl)c1)c1c(F)c(F)c(F)c(F)c1F` was tested. Which inhibition [1] did it give?
Answer: 5% (inactive)

Question: What about the inhibition [2] of the same compound?
Answer: 18% (inactive)

Question: What about the inhibition [3] of the same compound?
Answer: 0% (inactive)

Question: For `CON=Cc1ccc(N2CCN(C(=O)c3cccc(C(F)(F)F)c3)CC2)c([N+](=O)[O-])c1`, which inhibition [1] is on record?
Answer: 14% (inactive)

Question: And the inhibition [2]?
Answer: 14% (inactive)

Question: What about the inhibition [3] of the same compound?
Answer: 14% (inactive)

Question: How did the inhibition [1] turn out when `O=C(c1ccc2n[nH]nc2c1)N1CCN(c2ccc(C(F)(F)F)cn2)CC1` was run?
Answer: 26% (inactive)

Question: And the inhibition [2]?
Answer: 40%

Question: And the inhibition [3]?
Answer: 35%

Question: Which inhibition [1] does the source give for `COc1ccc(OC)c(-c2cc(C(=O)Nc3c(C)nn(Cc4ccccc4)c3C)no2)c1` here?
Answer: 3% (inactive)

Question: What about the inhibition [2] of the same compound?
Answer: 15% (inactive)

Question: And the inhibition [3]?
Answer: 0% (inactive)

Question: With `Cc1ccc(Oc2ccc3c(c2)C(=O)N(c2ccc(S(=O)(=O)Nc4nccs4)cc2)C3=O)cc1` as the compound, how does the inhibition [1] read?
Answer: 9% (inactive)

Question: And the inhibition [2]?
Answer: 14% (inactive)

Question: And the inhibition [3]?
Answer: 6% (inactive)

Question: With `COc1ccc(-n2nc(C(=O)NCC(=O)N3CCN(Cc4ccccc4)CC3)c3ccccc3c2=O)c(OC)c1` as the compound, how does the inhibition [1] read?
Answer: 18% (inactive)

Question: And the inhibition [2]?
Answer: 0% (inactive)

Question: And the inhibition [3]?
Answer: 15% (inactive)

Question: `O=C(NC(=S)Nc1sc2c(c1C(=O)O)CCCC2)c1ccccc1` was tested. Which inhibition [1] did it give?
Answer: 32%

Question: What about the inhibition [2] of the same compound?
Answer: 34%

Question: And the inhibition [3]?
Answer: 43%

Question: `C/C(C=NNC(=O)Cn1nnc(N)n1)=C\c1ccc(C(C)C)cc1` was tested. Which inhibition [1] did it give?
Answer: 2% (inactive)

Question: What about the inhibition [2] of the same compound?
Answer: 0% (inactive)

Question: And the inhibition [3]?
Answer: 0% (inactive)

Question: What does the source list for `Cc1nc(-c2ccc(S(=O)(=O)N3CCCN(CCc4ccccc4)CC3)s2)cs1`?
Answer: inhibition [1]: 8% (inactive); inhibition [2]: 7% (inactive); inhibition [3]: 0% (inactive)

Question: What does the source list for `CC(CCC(C)C)=NNC(=S)Nc1cc(S(=O)(=O)N2CCOCC2)ccc1N1CCOCC1`?
Answer: inhibition [1]: 8% (inactive); inhibition [2]: 19% (inactive); inhibition [3]: 16% (inactive)

Question: How did the inhibition [1] turn out when `Cc1ccccc1NC(=O)CN1C(=O)S/C(=C\c2cccn2-c2cccc(C(=O)O)c2)C1=O` was run?
Answer: 4% (inactive)

Question: What about the inhibition [2] of the same compound?
Answer: 0% (inactive)

Question: And the inhibition [3]?
Answer: 13% (inactive)

Question: With `O=C(CN1C(=O)S/C(=C\c2ccc(C(=O)O)cc2)C1=O)Nc1ccccc1` as the compound, how does the inhibition [1] read?
Answer: 8% (inactive)

Question: And the inhibition [2]?
Answer: 7% (inactive)

Question: And the inhibition [3]?
Answer: 8% (inactive)

Question: How did the inhibition [1] turn out when `COc1ccc(-n2nc(C(=O)NCC(=O)N3CCN(Cc4ccc5c(c4)OCO5)CC3)c3ccccc3c2=O)cc1OC` was run?
Answer: 26% (inactive)

Question: What about the inhibition [2] of the same compound?
Answer: 0% (inactive)

Question: And the inhibition [3]?
Answer: 23% (inactive)

Question: Which inhibition [1] does the source give for `O=C1Nc2ccc([N+](=O)[O-])cc2OC1CCN1CCN(Cc2ccc3c(c2)OCO3)CC1` (centres undefined) here?
Answer: 9% (inactive)

Question: And the inhibition [2]?
Answer: 27% (inactive)

Question: And the inhibition [3]?
Answer: 21% (inactive)

Question: How did the inhibition [1] turn out when `COc1cc(C2Oc3cc(C4Oc5cc(O)cc(O)c5C(=O)C4O)ccc3OC2CO)ccc1O` (centres undefined) was run?
Answer: 14% (inactive)

Question: What about the inhibition [2] of the same compound?
Answer: 10% (inactive)

Question: What about the inhibition [3] of the same compound?
Answer: 19% (inactive)

Question: For `O=C(COc1ccc(Cl)cc1Cl)N1CCN(C/C=C/c2ccccc2)CC1`, which inhibition [1] is on record?
Answer: 2% (inactive)

Question: And the inhibition [2]?
Answer: 0% (inactive)

Question: And the inhibition [3]?
Answer: 0% (inactive)

Question: Which inhibition [1] does the source give for `Cc1nc([N+](=O)[O-])cn1CC(=O)Nc1ccc(F)c(Cl)c1` here?
Answer: 10% (inactive)

Question: What about the inhibition [2] of the same compound?
Answer: 0% (inactive)

Question: And the inhibition [3]?
Answer: 15% (inactive)

Question: `COc1ccc2c(c1)C(=O)[C@@H](O)[C@H](c1ccc(OC)c(Br)c1)O2` was tested. Which inhibition [1] did it give?
Answer: 20% (inactive)

Question: And the inhibition [2]?
Answer: 13% (inactive)

Question: And the inhibition [3]?
Answer: 31%

Question: How did the inhibition [1] turn out when `COc1ccc2c(c1)C(=O)[C@H](O)[C@@H](c1ccc(OC)c(Br)c1)O2` was run?
Answer: 47%

Question: And the inhibition [2]?
Answer: 23% (inactive)

Question: What about the inhibition [3] of the same compound?
Answer: 55%

Question: Which inhibition [1] does the source give for `CC(=O)c1ccc(N2CCN(C(=O)C3CCN(S(=O)(=O)c4ccc5c(c4)CC(C)N5C(C)=O)CC3)CC2)cc1` (centres undefined) here?
Answer: 8% (inactive)

Question: And the inhibition [2]?
Answer: 18% (inactive)

Question: And the inhibition [3]?
Answer: 10% (inactive)

Question: What does the source list for `COc1cc(C=NNC(=O)C(NC(=O)c2ccccc2)c2n[nH]c(=O)c3ccccc23)ccc1OCC(N)=O` (centres undefined)?
Answer: inhibition [1]: 9% (inactive); inhibition [2]: 14% (inactive); inhibition [3]: 3% (inactive)

Question: With `CS(=O)(=O)Nc1ccc(N2CCN(c3ccc(C(F)(F)F)cn3)CC2)nc1` as the compound, how does the inhibition [1] read?
Answer: 8% (inactive)

Question: And the inhibition [2]?
Answer: 0% (inactive)

Question: What about the inhibition [3] of the same compound?
Answer: 1% (inactive)

Question: What does the source list for `O=C(N1CCOCC1)n1nnc2ccccc21`?
Answer: inhibition [1]: 47%; inhibition [2]: 103%; inhibition [3]: 54%

Question: What does the source list for `COc1ccc(/C=C2\SC(=O)N(CC(=O)Nc3ccc(F)cc3)C2=O)cc1O`?
Answer: inhibition [1]: 16% (inactive); inhibition [2]: 15% (inactive); inhibition [3]: 24% (inactive)

Question: Which results are given for `O=C(O)c1cccc(N2C(=O)c3ccc(Oc4ccc(Cl)cc4)cc3C2=O)c1`?
Answer: inhibition [1]: 7% (inactive); inhibition [2]: 25% (inactive); inhibition [3]: 11% (inactive)

Question: Which results are given for `COc1ccc(N2CCN(C(=O)c3ccc(C(C)(C)C)cc3)CC2)cc1`?
Answer: inhibition [1]: 57%; inhibition [2]: 16% (inactive); inhibition [3]: 47%

Question: `COc1ccc(-c2noc(CCC(=O)N3CCN(c4cccc(C(F)(F)F)c4)CC3)n2)cc1` was tested. Which inhibition [1] did it give?
Answer: 2% (inactive)

Question: And the inhibition [2]?
Answer: 1% (inactive)

Question: And the inhibition [3]?
Answer: 14% (inactive)

Question: For `Cc1ccc(NC(=O)Cn2c([N+](=O)[O-])cnc2C)cc1Cl`, which inhibition [1] is on record?
Answer: 8% (inactive)

Question: What about the inhibition [2] of the same compound?
Answer: 0% (inactive)

Question: And the inhibition [3]?
Answer: 8% (inactive)

Question: How did the inhibition [1] turn out when `O=C(Cc1ccc([N+](=O)[O-])cc1)N1CCN(c2ccc([N+](=O)[O-])cc2)CC1` was run?
Answer: 0% (inactive)

Question: And the inhibition [2]?
Answer: 0% (inactive)

Question: What about the inhibition [3] of the same compound?
Answer: 0% (inactive)

Question: How did the inhibition [1] turn out when `CC(=O)N1c2ccc(S(=O)(=O)N3CCC(C(=O)N4CCN(c5ccc(Cl)cc5)CC4)CC3)cc2CC1C` (centres undefined) was run?
Answer: 32%

Question: And the inhibition [2]?
Answer: 3% (inactive)

Question: What about the inhibition [3] of the same compound?
Answer: 26% (inactive)

Question: Which results are given for `O=[N+]([O-])c1ccc(Oc2cccc(Br)c2)c2ccncc12`?
Answer: inhibition [1]: 2% (inactive); inhibition [2]: 13% (inactive); inhibition [3]: 0% (inactive)

Question: How did the inhibition [1] turn out when `COc1ccc(-n2nc(C(=O)NCC(=O)N3CCN(c4cccc(Cl)c4)CC3)c3ccccc3c2=O)c(OC)c1` was run?
Answer: 52%

Question: And the inhibition [2]?
Answer: 33%

Question: What about the inhibition [3] of the same compound?
Answer: 41%
